What was measured:
[1] = molecular target: T1, Recombinant human TDO comprising amino acids 19-407 (Homo sapiens, UniProt P48775); assay: TDO2 enzymatic assay (NFK quantified by LCMS); format: biochemical; details: 15 nM enzyme, 200 μM L-tryptophan, pH7, 30 minutes pre-incubation at RT; mean values when measured multiple times; read-out: hTDO activity (IC50 in nM)
T1 construct: Recombinant human TDO comprising amino acids 19-407 with a N-terminal hexahistidine tag; hexahistidine (His6) (N); made in house; host or cells: E. coli
T1 sequence (P48775 19-406 limits assumed): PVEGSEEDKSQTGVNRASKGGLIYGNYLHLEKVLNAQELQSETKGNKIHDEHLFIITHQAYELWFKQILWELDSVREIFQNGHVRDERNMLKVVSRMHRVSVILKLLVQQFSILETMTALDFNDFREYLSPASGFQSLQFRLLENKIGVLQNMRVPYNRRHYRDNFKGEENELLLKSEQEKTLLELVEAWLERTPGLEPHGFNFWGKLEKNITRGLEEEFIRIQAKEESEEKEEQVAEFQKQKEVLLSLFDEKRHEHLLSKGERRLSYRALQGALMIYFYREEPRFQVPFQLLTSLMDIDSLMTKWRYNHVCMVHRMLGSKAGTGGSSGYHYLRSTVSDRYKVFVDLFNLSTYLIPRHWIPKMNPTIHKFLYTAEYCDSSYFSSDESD
In short: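 NFK formed over 30 min at RT from 200 μM L-tryptophan was measured by LCMS, normalized to d5-tryptophan, after compound (0.5 nM–10 μM, duplicates, 0.6% DMSO) was preincubated 30 min with 15 nM recombinant His-tagged TDO 19-407 in phosphate buffer pH 7. IC50 from four-parameter logistic fit; repeats averaged.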

[2] = molecular target: T2, Recombinant full-length human IDO1 (Homo sapiens, UniProt P14902); assay: IDO1 enzymatic assay (NFK quantified by LCMS); format: biochemical; details: 2 nM enzyme, 5 μM L-tryptophan, pH6.5, 30 minutes pre-incubation at RT; mean values when measured multiple times; read-out: hIDO activity (IC50 in nM)
T2 construct: Recombinant full-length human IDO1 with a N-terminal hexahistidine tag; hexahistidine (His6) (N); made in house; host or cells: E. coli
T2 sequence (P14902 whole entry): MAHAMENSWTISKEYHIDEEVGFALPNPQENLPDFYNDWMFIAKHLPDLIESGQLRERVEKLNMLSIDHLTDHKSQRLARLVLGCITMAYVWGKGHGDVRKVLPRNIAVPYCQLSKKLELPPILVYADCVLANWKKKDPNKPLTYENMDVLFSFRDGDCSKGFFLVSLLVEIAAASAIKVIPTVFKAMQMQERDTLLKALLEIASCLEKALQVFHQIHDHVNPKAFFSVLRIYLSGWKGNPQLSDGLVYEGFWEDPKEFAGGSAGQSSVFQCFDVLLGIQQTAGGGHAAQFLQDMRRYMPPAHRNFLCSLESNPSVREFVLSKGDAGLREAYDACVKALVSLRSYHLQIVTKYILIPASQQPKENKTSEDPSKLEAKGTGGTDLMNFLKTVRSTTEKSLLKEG
In short: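 His-tagged human IDO1 (2 nM) in pH 6.5 phosphate buffer with ascorbate, methylene blue and catalase was preincubated with compound (10 μM–0.5 nM, 0.6% DMSO) for 30 min at RT. The reaction then ran with 5 μM L-Trp for 30 min. NFK was measured by LCMS against a d5-Trp standard, and IC50 was obtained by four-parameter fit.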

SMILES	IC50 [1] [nM]	IC50 [2] [nM]
OC(c1cn(-c2cccc3ccncc23)nn1)c1c(C2CC2)sc2cncn12 (racemic) [Example 22, rac-(2-Cyclopropyl-imidazo[5,1-b]thiazol-3-yl)-(1-isoquinolin-8-yl-1H-[1,2,3]triazol-4-yl)-methanol]	> 10200	39.6
COc1ncc(-n2cc(C(O)c3c(C4CC4)sc4cncn34)nn2)cc1F (racemic) [Example 79, rac-(2-Cyclopropyl-imidazo[5,1-b]thiazol-3-yl)-[1-(5-fluoro-6-methoxy-pyridin-3-yl)-1H-[1,2,3]triazol-4-yl]-methanol]	> 10200	7.22
OC(c1nc(-c2ccccc2)no1)c1c(C2CC2)sc2cncn12 (racemic) [Example 163, rac-(2-Cyclopropyl-imidazo[5,1-b]thiazol-3-yl)-(3-phenyl-[1,2,4]oxadiazol-5-yl)-methanol]	> 10200	496
COc1ccc(-n2cc(C(O)c3c(-c4cccc(F)c4)sc4cncn34)nn2)cc1 (racemic) [Example 64, rac-[2-(3-Fluoro-phenyl)-imidazo[5,1-b]thiazol-3-yl]-[1-(4-methoxy-phenyl)-1H-[1,2,3]triazol-4-yl]-methanol]	> 10200	177
OC(c1ccc(-c2ccccc2)s1)c1c(C2CC2)sc2cncn12 (racemic) [Example 164, rac-(2-Cyclopropyl-imidazo[5,1-b]thiazol-3-yl)-(5-phenyl-thiophen-2-yl)-methanol]	> 10200	317
N#Cc1ccc(-c2ccc(C(O)c3c(C4CC4)sc4cncn34)s2)cc1 (racemic) [Example 173, rac-4-{5-[(2-Cyclopropyl-imidazo[5,1-b]thiazol-3-yl)-hydroxy-methyl]-thiophen-2-yl}-benzonitrile]	> 10200	732
OC(c1cn(-c2ccncc2)nn1)c1c(C2CC2)sc2cncn12 (racemic) [Example 30, rac-(2-Cyclopropyl-imidazo[5,1-b]thiazol-3-yl)-(1-pyridin-4-yl-1H-[1,2,3]triazol-4-yl)-methanol]	> 10200	63.2
CC(C)(C)OC(=O)Nc1ccc(-n2cc(C(O)c3c(C4CC4)sc4cncn34)nn2)cc1 (racemic) [Example 180, rac-(4-{4-[(2-Cyclopropyl-imidazo[5,1-b]thiazol-3-yl)-hydroxy-methyl]-[1,2,3]triazol-1-yl}-phenyl)-carbamic acid tert-butyl ester]	> 10200	33.6
OC(c1cn(-c2cccc(C(F)(F)F)c2)nn1)c1c(C2CC2)sc2cncn12 (racemic) [Example 5, rac-(2-Cyclopropyl-imidazo[5,1-b]thiazol-3-yl)-[1-(3-trifluoromethyl-phenyl)-1H-[1,2,3]triazol-4-yl]-methanol]	> 10200	74.2
O=C(NCc1ccco1)c1ccc(-n2cc(C(O)c3c(C4CC4)sc4cncn34)nn2)cc1 (racemic) [Example 190, rac-4-{4-[(2-Cyclopropyl-imidazo[5,1-b]thiazol-3-yl)-hydroxy-methyl]-[1,2,3]triazol-1-yl}-N-furan-2-ylmethyl-benzamide]	> 10200	8.8
Oc1ccc(-n2cc(C(O)c3c(C4CC4)sc4cncn34)nn2)cc1OC(F)(F)F (racemic) [Example 210, rac-4-{4-[(2-Cyclopropyl-imidazo[5,1-b]thiazol-3-yl)-hydroxy-methyl]-[1,2,3]triazol-1-yl}-2-trifluoromethoxy-phenol]	> 10200	23.5

Results, then the molecule that gave them:

IC50 [1] [nM]	IC50 [2] [nM]	SMILES
> 10200	204	OC(c1cn(-c2ccc(OCCN3CCCCC3)cc2)nn1)c1c(C2CC2)sc2cncn12 (racemic) [Example 89, rac-(2-Cyclopropyl-imidazo[5,1-b]thiazol-3-yl)-{1-[4-(2-piperidin-1-yl-ethoxy)-phenyl]-1H-[1,2,3]triazol-4-yl}-methanol]
1940	121	COc1ccc(-n2cc(C(O)c3c(C)sc4cncn34)cn2)cc1 (racemic) [Example 97, rac-[1-(4-Methoxy-phenyl)-1H-pyrazol-4-yl]-(2-methyl-imidazo[5,1-b]thiazol-3-yl)-methanol]
3800	29.8	CC(C)C(=O)Nc1ccc(-n2cc(C(O)c3c(C4CC4)sc4cncn34)cn2)cc1 (racemic) [Example 246, rac-N-(4-{4-[(2-Cyclopropyl-imidazo[5,1-b]thiazol-3-yl)-hydroxy-methyl]-pyrazol-1-yl}-phenyl)-isobutyramide]
> 10200	17	CC(C)(O)CCOc1ccc(-n2cc(C(O)c3c([C@@H]4C[C@@H]4F)sc4cncn34)nn2)cc1Cl (relative stereo) [Example 309, 4-[2-Chloro-4-(4-{[2-(cis-2-fluoro-cyclopropyl)-imidazo[5,1-b]thiazol-3-yl]-hydroxy-methyl}-[1,2,3]triazol-1-yl)-phenoxy]-2-methyl-butan-2-ol]
8710	15	CCc1sc2cncn2c1C(O)c1cn(-c2ccc(C(=O)NC3CC3)cc2)nn1 (racemic) [Example 125, rac-N-Cyclopropyl-4-{4-[(2-ethyl-imidazo[5,1-b]thiazol-3-yl)-hydroxy-methyl]-[1,2,3]triazol-1-yl}-benzamide]
> 10200	11.5	OC(c1cn(-c2cnc(OCc3ccccc3)nc2)nn1)c1c(C2CC2)sc2cncn12 (racemic) [Example 85, rac-[1-(2-Benzyloxy-pyrimidin-5-yl)-1H-[1,2,3]triazol-4-yl]-(2-cyclopropyl-imidazo[5,1-b]thiazol-3-yl)-methanol]
> 10200	70.4	O=c1[nH]c2ccc(-n3cc(C(O)c4c(C5CC5)sc5cncn45)nn3)cc2[nH]1 (racemic) [Example 194, rac-5-{4-[(2-Cyclopropyl-imidazo[5,1-b]thiazol-3-yl)-hydroxy-methyl]-[1,2,3]triazol-1-yl}-1,3-dihydro-benzoimidazol-2-one]
9780	9.29	C=CCNC(=O)c1ccc(-n2cc(C(O)c3c(CC)sc4cncn34)nn2)cc1 (racemic) [Example 129, rac-N-Allyl-4-{4-[(2-ethyl-imidazo[5,1-b]thiazol-3-yl)-hydroxy-methyl]-[1,2,3]triazol-1-yl}-benzamide]
> 10200	51.7	COc1ccc(-n2cc(C(O)c3c(C)sc4cncn34)nn2)cc1 (racemic) [Example 261, rac-[1-(4-Methoxy-phenyl)-1H-[1,2,3]triazol-4-yl]-(2-methyl-imidazo[5,1-b]thiazol-3-yl)-methanol]
> 10200	8.46	CC(C)(O)CCOc1ccc(-n2cc(C(O)c3c(C4CC4)sc4cncn34)nn2)cc1 (racemic) [Example 140, rac-4-(4-{4-[(2-Cyclopropyl-imidazo[5,1-b]thiazol-3-yl)-hydroxy-methyl]-[1,2,3]triazol-1-yl}-phenoxy)-2-methyl-butan-2-ol]
4190	5.68	OC(c1cn(-c2cncc3ccccc23)nn1)c1c(C2CC2)sc2cncn12 (racemic) [Example 26, rac-(2-Cyclopropyl-imidazo[5,1-b]thiazol-3-yl)-(1-isoquinolin-4-yl-1H-[1,2,3]triazol-4-yl)-methanol]
> 10200	35.5	OC(c1cn(-c2cnc3c(c2)CCCO3)nn1)c1c(C2CC2)sc2cncn12 (racemic) [Example 72, rac-(2-Cyclopropyl-imidazo[5,1-b]thiazol-3-yl)-[1-(3,4-dihydro-2H-pyrano[2,3-b]pyridin-6-yl)-1H-[1,2,3]triazol-4-yl]-methanol]
> 10200	27.8	OCCOCCOCCOc1ccc(-n2cc(C(O)c3c(C4CC4)sc4cncn34)nn2)cc1 (racemic) [Example 201, rac-2-{2-[2-(4-{4-[(2-Cyclopropyl-imidazo[5,1-b]thiazol-3-yl)-hydroxy-methyl]-[1,2,3]triazol-1-yl}-phenoxy)-ethoxy]-ethoxy}-ethanol]
2450	17.5	O[C@@H](c1cnn(-c2ccccc2)c1)c1c(C2CC2)sc2cncn12 [Example 100a, (S)-(2-Cyclopropyl-imidazo[5,1-b]thiazol-3-yl)-(1-phenyl-1H-pyrazol-4-yl)-methanol]
> 10200	28.9	COc1ccc(-n2cc(C(O)c3c(C4CC4)sc4cncn34)nn2)c(F)c1Cl (racemic) [Example 292, rac-[1-(3-Chloro-2-fluoro-4-methoxy-phenyl)-1H-[1,2,3]triazol-4-yl]-(2-cyclopropyl-imidazo[5,1-b]thiazol-3-yl)-methanol]

Reference: patent US20200405696A1, “INHIBITORS OF INDOLEAMINE 2,3-DIOXYGENASE AND/OR TRYPTOPHAN 2,3-DIOXYGENASE” (IDORSIA PHARMACEUTICALS LTD, priority 2018, published 2020)
